Measured values: US9611301B2, “GB virus C (hepatitis G virus) E2 glycoprotein as an immunomodulatory agent” (priority 2012, dated 2017)
Where no end group is shown, it is not given here.

Legend:
[1] = target: T1, Lck (Homo sapiens, UniProt P06239); experiment: Lck mediated phosphorylation of TAT-peptides (Lck kinase enzyme system); format: biochemical; settings: in vitro
T1 construct: purchased Promega
Description: CD45 activity was measured using CD45 tyrosine phosphatase assay kit (Enzo Life Sciences) following the manufacturer's instructions. Purified recombinant GBV-C E2 protein expressed in CHO cells was described previouslyl^2. Enzymatic activity was evaluated with or without GBV-C E2 protein (10 μg) or human IgG control (10 μg; Sigma) at room temperature. Following 1 hour incubation, the reaction was terminated and absorbance determined by a Microplate reader (Model 680, Bio-Rad) at OD620nm. Phosphorylation of GBV-C E2 protein by Lck was measured by incubating recombinant E2 protein (40 μg) with or without human Lck ([…]; R&D Systems) as recommended by the manufacturer. Samples were subjected to immunoblot analysis as described above. Phosphorylation was determined by immunoblot analysis with phosphotyrosine antibodies (Invitrogen) and GBV-C E2 protein was identified using an anti-E2 monoclonal antibody. Lck mediated phosphorylation of GBV-C E2 derived TAT-peptides were performed using Lck kinase enzyme system (Promega) as recommended by the manufacturer.

[2] = test system: Healthy donors PBMCs; experiment: IL-2 production by PBMCs incubated with synthetic TAT peptides, anti-CD3/CD28 stimulation; format: cell-based, human; settings: 20 μg peptide over night, anti-CD3/CD28 500 ng/ml, 24 hrs
Text: pLAT (Y191) was quantified using PathScan ELISA kit (Cell Signaling Technology) and IL-2 cytokine released into cell culture supernatant was quantified using human IL-2 quantikine ELISA kit (R&D Systems) according to manufacturer's instructions.
(§1) FITC labelled synthetic peptides with an N-terminal HIV TAT protein transduction domain (TAT) alone (GGGGGRKKRRQRRR; SEQ ID NO: 13), or with the GBV-C E2 aa 86-101 ([…]; SEQ ID NO: 14; Y87), or the Y87H mutation ([…]; SEQ ID NO: 15) were obtained from Ana Spec, Inc. Peptides with the TAT domain and GBV-C E2 aa 276-292 (GGAGLTGGRYEPLVRRC; SEQ ID NO: 16), or the same amino acids in a scrambled order (GCRCARGVLLTPGEGYF; SEQ ID NO: 17) as previously described^28. Peptides were dissolved in RPMI with 10% DMSO. The TAT domain enhances cellular uptake of the peptide. Healthy donors PBMCs (1×10^6 cells/ml) were incubated with 20 μg peptide at 37° C. over night before stimulation with 500 ng/ml anti-CD3/CD28. IL-2 release and cellular receptor expression was analyzed 24 hrs later.

[3] = test system: primary human CD4+ and CD8+ T cells; experiment: CD69 and CD25 surface expression on CD4+ and CD8+ T cells incubated with synthetic TAT peptides; format: cell-based; settings: compared to mutant or control peptide
Description: Cellular receptor expression was measured using the following antibodies per manufacturer's recommendation: CD69 (PE), CD25 (APC), CD45 (PE) (BD Biosciences). Cells were incubated on ice for 1 hour, washed 3 times with PBS and fixed in 2% paraformaldehyde (Polysciences). Data was acquired on BD LSR II flow cytometer using single stained CompBeads (BD Biosciences) for compensation. At least 10,000 total events were collected in each experiment and the FlowJo program (Tree Star Inc.) was used for data analysis. All flow cytometry experiments were repeated at least three times with consistent results.
as §1

T1 sequence (P06239 whole entry, species assumed): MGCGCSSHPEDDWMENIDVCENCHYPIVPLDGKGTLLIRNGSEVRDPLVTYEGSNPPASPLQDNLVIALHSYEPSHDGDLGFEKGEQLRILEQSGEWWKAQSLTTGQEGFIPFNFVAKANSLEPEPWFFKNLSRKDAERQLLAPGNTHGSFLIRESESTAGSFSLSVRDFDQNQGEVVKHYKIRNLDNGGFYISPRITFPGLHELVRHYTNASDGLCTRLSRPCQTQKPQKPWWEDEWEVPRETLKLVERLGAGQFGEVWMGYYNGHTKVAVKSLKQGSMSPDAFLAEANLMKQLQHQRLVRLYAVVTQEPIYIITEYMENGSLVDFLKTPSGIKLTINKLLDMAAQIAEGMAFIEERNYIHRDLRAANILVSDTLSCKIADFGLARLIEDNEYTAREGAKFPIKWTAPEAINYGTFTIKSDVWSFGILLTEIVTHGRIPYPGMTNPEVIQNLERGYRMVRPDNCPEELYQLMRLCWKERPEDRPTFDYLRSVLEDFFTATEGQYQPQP

## GGAGLTGGRYEPLVRRC [TAT-276-292]
[1]
  Lck mediated phosphorylation of peptide (Lck substrate): served as a Lck substrate in vitro

## GGGGGRKKRRQRRR (also: FITC label, site not given here) [TAT control, HIV TAT protein transduction domain alone; negative control, reference compound]
[2]
  IL-2 production: not

## GGGGGRKKRRQRRRVHGSVSVTCVWGS (also: FITC label, site not given here) [TAT-Y87H, TAT peptide with the Y87H mutation]
[2]
  IL-2 production: not

## GGGGGRKKRRQRRRVYGSVSVTCVWGS (also: FITC label, site not given here) [TAT-Y87, synthetic peptide, N-terminal HIV TAT protein transduction domain with GBV-C E2 aa 86-101]
[1]
  Lck mediated phosphorylation of peptide (Lck substrate): phosphorylated by Lck in a dose-dependent manner
[2]
  IL-2 production: inhibited
[3]
  surface expression of CD25: significantly reduced
  surface expression of CD69: significantly reduced
